{
  "source": "paper PMC7093532",
  "about": "“Iron bioavailability from bouillon fortified with a novel ferric phytate compound: a stable iron isotope study in healthy women (part II)” (Scientific Reports, 2020)",
  "key": {"[1]": {"assay": "Stable iron isotope absorption study in healthy adult women (erythrocyte incorporation of oral isotopic labels)", "text": "The human study was a controlled, single blind (to the subjects), single center trial. Healthy adult women (n = 23) consumed 6 different types of investigational products in random order with a cross-over design: bouillon with and without corn porridge fortified either with [^58Fe]-PA-HCP, [^54Fe]-SO4, or [^57Fe]-PP, resulting in 6 different test meal sequences. The sequences built up a Partial Williams Latin square, balanced for first order carry over. The experimental phase lasted for a period of 33 days.\nThe human study was conducted between December 2016 and February 2017 at the Laboratory of Human Nutrition of the ETH Zurich. […] The study procedure was explained in detail and written informed consent was obtained. An interview was conducted, weight and height were measured and a venous blood sample was drawn to assess whether participants fulfilled inclusion and exclusion criteria (Hb, Ht, number of erythrocytes, PF). […] The labelled iron-fortified test meals were administered on days 1, 2, 3, 17, 18 and 19 (Fig. 3). Test meals were administered between 07:00 and 09:30 after an overnight fast. The participants consumed the complete test meal and a glass of 300 mL ultrapure water in the presence of the investigators. […] Quantitative consumption of the investigational product was ensured by washing the glass test meal container 2 times with 10 mL of ultrapure water. After consuming the test meals, participants were not allowed to eat or drink for 3 h.\nVenous blood samples were collected after an overnight fast on day 1 (baseline), day 17 and day 33 (endpoint) to determine iron status and iron absorption from the test meals. Iron absorption was determined by quantifying the incorporation of oral stable isotopic labels into erythrocytes. Adverse events and concomitant medication were inquired and documented during the entire study. All experiments were performed in accordance with relevant guidelines and regulations. The study was approved by the ethics Committee of the Canton Zurich, Switzerland (KEK-ZH-Nr. 2016–01472). Participants gave informed written consent before participation in the study and received a symbolic reimbursement at the end of the trial. The study was registered at clinicaltrials.gov as NCT02993835 on December 15, 2016.\nThe bouillon meal was prepared from 300 g ultrapure water and 7 g commercial vegetable bouillon powder (Maggi Gemüse Bouillon, Maggi, Singen, Germany) per serving. The bouillon contained iodized salt, dehydrated vegetables (onion, carrot, spinach, celery), yeast extracts, white sugar, potato starch, vegetable extracts (carrot, leek, onion, garlic), sunflower seed oil, natural flavours, spices (curcumin, paprika, nutmeg), chervil, caramelized sugar and natural celery flavour. […] The inhibitory meal was a corn porridge, prepared from 300 g ultrapure water, 7 g commercial vegetable bouillon powder and 50 g whole corn flour per serving (Farina per polenta integrale, Paolo Bassetti, Pianezzo, Switzerland) to achieve an absorption-inhibiting PA:Fe molar ratio of 5.0[31],[40], representative of a moderately inhibitory meal. Whole corn flour has a phytic acid content of about 1–2%, which is higher than in wheat (0.9%) and rice (0.7%)[12],[41]. Test meals were prepared the day before each feeding and stored in individual portions in a refrigerator overnight. On the day of administration, test meals were heated in a microwave oven. The pre-weighed vials containing the labeled iron compounds were added to the test meals and were rinsed 2 times with 2 mL of ultrapure water. […] Bouillon meals further contained 0.1 mg intrinsic iron and the inhibitory meals contained 0.8 mg Fe from the corn flour."}, "[2]": {"conditions": "cited from earlier work"}, "[3]": {"conditions": "dogs, cited from earlier work"}, "[4]": {"conditions": "cited from earlier work", "remark": "listed apart in the source"}, "[5]": {"conditions": "PF < 40 µg/L, bouillon + inhibitory meal"}, "[6]": {"conditions": "PF ≥ 40 µg/L, bouillon + inhibitory meal"}},
  "note": "Read-outs that look alike come from different tables or passages of the source.",
  "data": [
    {"molecule": "O=P([O-])([O-])OP(=O)([O-])[O-].O=P([O-])([O-])OP(=O)([O-])[O-].O=P([O-])([O-])OP(=O)([O-])[O-].[Fe+3].[Fe+3].[Fe+3].[Fe+3]", "note": "[FePP, Ferric pyrophosphate]", "values": [
      {"measurement": "factor (FIA, bouillon vs bouillon + inhibitory meal)", "setting": "[1]; PF < 40 µg/L", "value": 6.7},
      {"measurement": "factor (RBV, bouillon + inhibitory meal vs bouillon)", "setting": "[1]; PF < 40 µg/L", "value": 1.2},
      {"measurement": "FIA, geo-mean", "setting": "[1]; PF < 40 µg/L, bouillon", "value": 1.9, "unit": "%"},
      {"measurement": "RBV, geo-mean", "setting": "[1]; PF < 40 µg/L, bouillon", "value": 5.8, "unit": "%"},
      {"measurement": "FIA, geo-mean", "setting": "[1]; [5]", "value": 0.3, "unit": "%"},
      {"measurement": "RBV, geo-mean", "setting": "[1]; [5]", "value": 7.1, "unit": "%"},
      {"measurement": "factor (FIA, bouillon vs bouillon + inhibitory meal)", "setting": "[1]; PF ≥ 40 µg/L", "value": 6.2},
      {"measurement": "factor (RBV, bouillon + inhibitory meal vs bouillon)", "setting": "[1]; PF ≥ 40 µg/L", "value": 0.9},
      {"measurement": "FIA, geo-mean", "setting": "[1]; PF ≥ 40 µg/L, bouillon", "value": 1.7, "unit": "%"},
      {"measurement": "RBV, geo-mean", "setting": "[1]; PF ≥ 40 µg/L, bouillon", "value": 8.8, "unit": "%"},
      {"measurement": "FIA, geo-mean", "setting": "[1]; [6]", "value": 0.3, "unit": "%"},
      {"measurement": "RBV, geo-mean", "setting": "[1]; [6]", "value": 8.3, "unit": "%"},
      {"measurement": "Factor by which FIA is lower in the inhibitory meal compared to bouillon", "setting": "[1]; all participants", "value": 5.9},
      {"measurement": "Factor by which RBV is higher in the inhibitory meal compared to bouillon", "setting": "[1]; all participants", "value": 1.2},
      {"measurement": "RBV", "setting": "[2]; fortified bouillon cubes, mean PF of participants 9.4 µg/L", "value": 13, "unit": "%"}
    ]},
    {"molecule": "O=P(O)(O)OC1C(OP(=O)(O)O)C(OP(=O)(O)O)C(OP(=O)(O)O)C(OP(=O)(O)O)C1OP(=O)(O)O.[Fe+3]", "note": "(stereo not drawn) [monoferric phytate]", "values": [
      {"measurement": "absorption", "setting": "[3]; added to meals", "value": "equal to the major pool of dietary inorganic iron"},
      {"measurement": "bioavailability", "setting": "[3]", "value": "highly bioavailable"},
      {"measurement": "iron absorption", "setting": "[2]; humans", "value": "absorbed at least as well as the common pool of non-heme dietary iron"},
      {"measurement": "relative biological value of iron", "setting": "[4]; rat study", "value": "equivalent to common iron fortificants such as ferrous ammonium sulfate"},
      {"measurement": "bioavailability", "setting": "[4]; rats", "value": "highly bioavailable"}
    ]},
    {"molecule": "Diphosphate sodium salt", "values": [
      {"measurement": "fractional absorption", "setting": "[2]; bouillon, with the diphosphate added (4.4% without)", "value": 6.4, "unit": "%"},
      {"measurement": "relative bioavailability", "setting": "[2]; in vivo", "value": "13–23%"}
    ]},
    {"molecule": "ferrous sulfate [FeSO4]", "values": [
      {"measurement": "Factor by which FIA is lower in the inhibitory meal compared to bouillon", "setting": "[1]; in vivo", "value": 6.8},
      {"measurement": "In vitro fractional bioaccessibility (IVFBA), geo-mean", "setting": "Caco-2 cells", "value": 9.6, "unit": "%"}
    ]}
  ]
}
